Legend:
Test in all cases: relative viability (nuclei count vs DMSO), 5 days (fraction); higher = more cells survive
[1] = compound: COc1cc2c(Oc3ccc4[nH]c(C)cc4c3F)ncnc2cc1OCCCN1CCCC1 [Cediranib] + CC(=O)c1c(C)c2cnc(Nc3ccc(N4CCNCC4)cn3)nc2n(C2CCCC2)c1=O [Palbociclib] (partner 0.5 µM)
Outline: (§1)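 Lung cancer cell lines in 1536-well plates got either a single drug or a fixed anchor-drug dose together with five library-drug doses (not always all listed) in √10 steps, by pin tool, on the day after seeding. Nuclei were counted after 5 days, and relative viability is the treated-to-vehicle ratio of nuclei counts. Values are medians of duplicate plates.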

[2] = compound: COc1cc2c(Oc3ccc4[nH]c(C)cc4c3F)ncnc2cc1OCCCN1CCCC1 [Cediranib] + Cc1cc(Nc2cc(N3CCN(C)CC3)nc(Sc3ccc(NC(=O)C4CC4)cc3)n2)n[nH]1 [Tozasertib] (partner 0.1 µM)
Outline: as §1

[3] = compound: Nc1ncn([C@H]2C[C@H](O)[C@@H](CO)O2)c(=O)n1 [Decitabine] + COc1cccc2cc(-c3nc([C@H]4CC[C@H](C(=O)O)CC4)n4ncnc(N)c34)[nH]c12 [OSI-027] (partner 0.5 µM)
Outline: as §1

[4] = compound: O=C(C[C@H]1NCCC[C@@H]1O)Cn1cnc2cc(Br)c(Cl)cc2c1=O (racemic) [Halofuginone] + N=C(N)NC(=N)NCCc1ccccc1 [Phenformin] (partner 250 µM)
Outline: as §1

Work on PC-3 [JPC-3] yielded a relative viability ([1]; first compound 0.04 µM) of 0.571, a relative viability ([1]; first compound 0.4 µM) of 0.515 and a relative viability ([1]; first compound 1.265 µM) of 0.559. It also gave a relative viability ([1]; first compound 4 µM) of 0.563, a relative viability ([2]; first compound 0.04 µM) of 0.886 and a relative viability ([2]; first compound 0.1265 µM) of 0.906. For the same cell line, the relative viability ([2]; first compound 0.4 µM) was 0.947, the relative viability ([2]; first compound 1.265 µM) was 0.891 and the relative viability ([2]; first compound 4 µM) was 0.876. For the same cell line, the relative viability ([3]; first compound 0.04 µM) was 0.463, the relative viability ([3]; first compound 0.1265 µM) was 0.702 and the relative viability ([3]; first compound 0.4 µM) was 0.475. For the same cell line, the relative viability ([3]; first compound 1.265 µM) was 0.469, the relative viability ([3]; first compound 4 µM) was 0.426 and the relative viability ([4]; first compound 0.001 µM) was 0.501. It also gave a relative viability ([4]; first compound 0.003162 µM) of 0.453, a relative viability ([4]; first compound 0.01 µM) of 0.456 and a relative viability ([4]; first compound 0.03162 µM) of 0.473. The relative viability ([4]; first compound 0.1 µM) was 0.443.

Cell Line HCC-44 has a relative viability ([1]; first compound 0.04 µM) of 0.983, a relative viability ([1]; first compound 0.1265 µM) of 0.917 and a relative viability ([1]; first compound 0.4 µM) of 0.974. It also gave a relative viability ([1]; first compound 1.265 µM) of 0.947, a relative viability ([1]; first compound 4 µM) of 1.01 and a relative viability ([2]; first compound 0.4 µM) of 0.893. The relative viability ([2]; first compound 1.265 µM) was 1.05, the relative viability ([2]; first compound 4 µM) was 0.831 and the relative viability ([3]; first compound 0.1265 µM) was 0.739. For the same cell line, the relative viability ([3]; first compound 0.4 µM) was 0.232, the relative viability ([3]; first compound 1.265 µM) was 0.364 and the relative viability ([3]; first compound 4 µM) was 0.49. The relative viability ([4]; first compound 0.001 µM) was 0.23, the relative viability ([4]; first compound 0.003162 µM) was 0.222 and the relative viability ([4]; first compound 0.01 µM) was 0.196. It also gave a relative viability ([4]; first compound 0.03162 µM) of 0.178 and a relative viability ([4]; first compound 0.1 µM) of 0.13.

NCI-H2405 showed a relative viability ([1]; first compound 0.04 µM) of 0.532, a relative viability ([1]; first compound 0.1265 µM) of 0.574 and a relative viability ([1]; first compound 0.4 µM) of 0.516. The relative viability ([1]; first compound 1.265 µM) was 0.546, the relative viability ([1]; first compound 4 µM) was 0.514 and the relative viability ([2]; first compound 0.04 µM) was 0.75. For the same cell line, the relative viability ([2]; first compound 0.1265 µM) was 0.88, the relative viability ([2]; first compound 0.4 µM) was 0.717 and the relative viability ([2]; first compound 1.265 µM) was 0.778. It also gave a relative viability ([2]; first compound 4 µM) of 0.757, a relative viability ([3]; first compound 0.04 µM) of 0.555 and a relative viability ([3]; first compound 0.1265 µM) of 0.564. It also gave a relative viability ([3]; first compound 0.4 µM) of 0.543, a relative viability ([3]; first compound 1.265 µM) of 0.444 and a relative viability ([3]; first compound 4 µM) of 0.399. It also gave a relative viability ([4]; first compound 0.001 µM) of 0.423, a relative viability ([4]; first compound 0.003162 µM) of 0.436 and a relative viability ([4]; first compound 0.01 µM) of 0.414. The relative viability ([4]; first compound 0.03162 µM) was 0.396 and the relative viability ([4]; first compound 0.1 µM) was 0.337.

Cell Line LXF-289 has a relative viability ([1]; first compound 0.04 µM) of 0.617, a relative viability ([1]; first compound 0.4 µM) of 0.569 and a relative viability ([1]; first compound 1.265 µM) of 0.566. For the same cell line, the relative viability ([1]; first compound 4 µM) was 0.609, the relative viability ([2]; first compound 0.04 µM) was 0.231 and the relative viability ([2]; first compound 0.1265 µM) was 0.219. For the same cell line, the relative viability ([2]; first compound 0.4 µM) was 0.212, the relative viability ([2]; first compound 1.265 µM) was 0.212 and the relative viability ([2]; first compound 4 µM) was 0.2. The relative viability ([3]; first compound 0.04 µM) was 0.646, the relative viability ([3]; first compound 0.1265 µM) was 0.617 and the relative viability ([3]; first compound 0.4 µM) was 0.361. For the same cell line, the relative viability ([3]; first compound 1.265 µM) was 0.31, the relative viability ([3]; first compound 4 µM) was 0.23 and the relative viability ([4]; first compound 0.001 µM) was 0.533. It also gave a relative viability ([4]; first compound 0.003162 µM) of 0.519, a relative viability ([4]; first compound 0.01 µM) of 0.498 and a relative viability ([4]; first compound 0.03162 µM) of 0.508. The relative viability ([4]; first compound 0.1 µM) was 0.507.

With LOU-NH91 the relative viability ([1]; first compound 0.04 µM) was 0.55, the relative viability ([1]; first compound 0.1265 µM) was 0.561 and the relative viability ([1]; first compound 0.4 µM) was 0.51. For the same cell line, the relative viability ([1]; first compound 1.265 µM) was 0.513, the relative viability ([1]; first compound 4 µM) was 0.533 and the relative viability ([2]; first compound 0.04 µM) was 0.473. For the same cell line, the relative viability ([2]; first compound 0.1265 µM) was 0.67, the relative viability ([2]; first compound 0.4 µM) was 0.646 and the relative viability ([2]; first compound 1.265 µM) was 0.708. The relative viability ([2]; first compound 4 µM) was 0.658, the relative viability ([3]; first compound 0.04 µM) was 0.497 and the relative viability ([3]; first compound 0.1265 µM) was 0.738. For the same cell line, the relative viability ([3]; first compound 0.4 µM) was 0.621, the relative viability ([3]; first compound 1.265 µM) was 0.629 and the relative viability ([3]; first compound 4 µM) was 0.672. For the same cell line, the relative viability ([4]; first compound 0.001 µM) was 0.75, the relative viability ([4]; first compound 0.003162 µM) was 0.686 and the relative viability ([4]; first compound 0.01 µM) was 0.65. The relative viability ([4]; first compound 0.03162 µM) was 0.786 and the relative viability ([4]; first compound 0.1 µM) was 0.628.

For A549, the relative viability ([4]; first compound 0.001 µM) was 0.186, the relative viability ([4]; first compound 0.003162 µM) was 0.215 and the relative viability ([4]; first compound 0.01 µM) was 0.148. It also gave a relative viability ([4]; first compound 0.03162 µM) of 0.163 and a relative viability ([4]; first compound 0.1 µM) of 0.109.

H3255 was tested, and the relative viability ([1]; first compound 0.04 µM) was 0.322, the relative viability ([1]; first compound 0.1265 µM) was 0.322 and the relative viability ([1]; first compound 0.4 µM) was 0.316. For the same cell line, the relative viability ([1]; first compound 1.265 µM) was 0.308, the relative viability ([1]; first compound 4 µM) was 0.334 and the relative viability ([2]; first compound 0.04 µM) was 0.578. The relative viability ([2]; first compound 0.4 µM) was 0.599, the relative viability ([2]; first compound 1.265 µM) was 0.654 and the relative viability ([2]; first compound 4 µM) was 0.43. For the same cell line, the relative viability ([3]; first compound 0.1265 µM) was 0.478, the relative viability ([3]; first compound 0.4 µM) was 0.435 and the relative viability ([3]; first compound 1.265 µM) was 0.5. For the same cell line, the relative viability ([3]; first compound 4 µM) was 0.535, the relative viability ([4]; first compound 0.001 µM) was 0.399 and the relative viability ([4]; first compound 0.003162 µM) was 0.372. The relative viability ([4]; first compound 0.01 µM) was 0.293, the relative viability ([4]; first compound 0.03162 µM) was 0.401 and the relative viability ([4]; first compound 0.1 µM) was 0.369.

In the case of NCI-H1395, the relative viability ([1]; first compound 0.04 µM) was 0.622, the relative viability ([1]; first compound 0.1265 µM) was 0.615 and the relative viability ([1]; first compound 0.4 µM) was 0.629. For the same cell line, the relative viability ([1]; first compound 1.265 µM) was 0.623, the relative viability ([1]; first compound 4 µM) was 0.535 and the relative viability ([2]; first compound 0.04 µM) was 0.739. The relative viability ([2]; first compound 0.1265 µM) was 0.773, the relative viability ([2]; first compound 0.4 µM) was 0.666 and the relative viability ([2]; first compound 1.265 µM) was 0.74. It also gave a relative viability ([2]; first compound 4 µM) of 0.791, a relative viability ([3]; first compound 0.04 µM) of 0.483 and a relative viability ([3]; first compound 0.1265 µM) of 0.529. It also gave a relative viability ([3]; first compound 0.4 µM) of 0.516, a relative viability ([3]; first compound 1.265 µM) of 0.455 and a relative viability ([3]; first compound 4 µM) of 0.492. The relative viability ([4]; first compound 0.001 µM) was 0.457, the relative viability ([4]; first compound 0.003162 µM) was 0.464 and the relative viability ([4]; first compound 0.01 µM) was 0.442. For the same cell line, the relative viability ([4]; first compound 0.03162 µM) was 0.444 and the relative viability ([4]; first compound 0.1 µM) was 0.334.

LC-2-ad gave a relative viability ([1]; first compound 0.04 µM) of 0.527, a relative viability ([1]; first compound 0.1265 µM) of 0.55 and a relative viability ([1]; first compound 0.4 µM) of 0.456. The relative viability ([1]; first compound 1.265 µM) was 0.494, the relative viability ([1]; first compound 4 µM) was 0.399 and the relative viability ([2]; first compound 0.04 µM) was 0.496. The relative viability ([2]; first compound 0.1265 µM) was 0.373, the relative viability ([2]; first compound 0.4 µM) was 0.456 and the relative viability ([2]; first compound 1.265 µM) was 0.507. It also gave a relative viability ([2]; first compound 4 µM) of 0.371, a relative viability ([3]; first compound 0.04 µM) of 0.738 and a relative viability ([3]; first compound 0.1265 µM) of 0.705. For the same cell line, the relative viability ([3]; first compound 0.4 µM) was 0.663, the relative viability ([3]; first compound 1.265 µM) was 0.457 and the relative viability ([3]; first compound 4 µM) was 0.479. For the same cell line, the relative viability ([4]; first compound 0.001 µM) was 0.694, the relative viability ([4]; first compound 0.003162 µM) was 0.581 and the relative viability ([4]; first compound 0.01 µM) was 0.536. For the same cell line, the relative viability ([4]; first compound 0.03162 µM) was 0.677 and the relative viability ([4]; first compound 0.1 µM) was 0.466.
